Measured values published in publication PMC3690532 (Structure (London, England : 1993), 2013).

Molecular target: T1, S. enterica MTAN (SeMTAN) (Salmonella choleraesuis, UniProt Q57T48)
T1 sequence (Q57T48 1-232): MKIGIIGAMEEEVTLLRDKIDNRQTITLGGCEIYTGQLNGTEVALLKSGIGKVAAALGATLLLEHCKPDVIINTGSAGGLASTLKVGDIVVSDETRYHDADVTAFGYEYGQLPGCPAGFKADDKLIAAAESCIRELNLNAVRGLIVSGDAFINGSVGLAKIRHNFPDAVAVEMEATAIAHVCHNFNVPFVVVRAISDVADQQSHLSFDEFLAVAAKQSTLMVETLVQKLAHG
Assay: slow-onset inhibition constant
Assay type: biochemical
Settings: for ΔG (Gibbs free energy): generated from Ki* using ΔG = RT ln Ki*; for ΔΔG: methylthio-DADMe-ImmA as reference

Structure (SMILES)	ΔG (Gibbs free energy) [kcal/mol]	ΔΔG [kcal/mol]	ΔG of binding higher when compared to MT-, DiEGT- and BuT-DADMe-ImmA (difference versus the three inhibitors) [kcal/mol]
Nc1ncnc2c(CN3CC(O)C(CSCCOCCO)C3)c[nH]c12 (stereo not drawn) [2-(2-hydroxyethoxy)ethylthio-DADMe-ImmA]	-15.4 ± 0.1	0	–
Nc1ncnc2c(CN3CC(O)C(CSCCO)C3)c[nH]c12 (stereo not drawn) [2-Hydroxyethylthio-DADMe-ImmA]	-14.9 ± 0.1	0.5	–
Nc1ncnc2c(CN3CC(O)C(CSCCCO)C3)c[nH]c12 (stereo not drawn) [3-Hydroxypropylthio-DADMe-ImmA]	-15.2 ± 0.2	0.2	–
Nc1ncnc2c(CN3CC(O)C(CSCCCCO)C3)c[nH]c12 (stereo not drawn) [4-Hydroxybutylthio-DADMe-ImmA]	-14.8 ± 0.1	0.6	–
CCCCSC[C@H]1CN(Cc2c[nH]c3c(N)ncnc23)C[C@@H]1O [Butylthio-DADMe-ImmA, reference compound]	-16.1 ± 0.2	-0.7	–
Nc1ncnc2c(CN3C[C@H](CSCC[C@H](N)C(=O)O)[C@@H](O)C3)c[nH]c12 [Homocysteine-DADMe-ImmA, reference compound]	-13.9 ± 0.1	1.5	1.5 to 2.2
CSC[C@H]1CN(Cc2c[nH]c3c(N)ncnc23)C[C@@H]1O [Methylthio-DADMe-ImmA, reference compound]	-15.4 ± 0.1	0	–
